{"source": "the supplement of paper PMC10307832", "assay_in_all_cases": "relative viability (nuclei count vs DMSO), 5 days (fraction); higher = more cells survive", "key": {"[1]": {"system": "201T", "method_in_brief": "(§1)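 One day after seeding in 1536-well plates, lung cancer cell lines were dosed by pin tool. Dosing was either single-drug or a fixed anchor-drug dose plus five library-drug doses (not always all listed) in √10 steps. After 5 days, nuclei were stained in one fix-and-stain step and counted on 4× images, and relative viability is the nuclei count of treated wells over that of vehicle wells, given as the median of duplicate plates.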"}, "[2]": {"system": "BEN", "method_in_brief": "as §1"}, "[3]": {"system": "CAL-12T", "method_in_brief": "as §1"}, "[4]": {"system": "HCC-827", "method_in_brief": "as §1"}, "[5]": {"system": "LCLC-103H", "method_in_brief": "as §1"}, "[6]": {"system": "LCLC-97TM1", "method_in_brief": "as §1"}, "[7]": {"system": "LXF-289", "method_in_brief": "as §1"}, "[8]": {"system": "NCI-H1395", "method_in_brief": "as §1"}, "[9]": {"system": "NCI-H1437", "method_in_brief": "as §1"}, "[10]": {"system": "NCI-H1650", "method_in_brief": "as §1"}, "[11]": {"system": "NCI-H1792", "method_in_brief": "as §1"}, "[12]": {"system": "NCI-H1793", "method_in_brief": "as §1"}, "[13]": {"system": "NCI-H1944", "method_in_brief": "as §1"}, "[14]": {"system": "NCI-H2087", "method_in_brief": "as §1"}, "[15]": {"system": "NCI-H2228", "method_in_brief": "as §1"}, "[16]": {"system": "NCI-H2405", "method_in_brief": "as §1"}, "[17]": {"system": "NCI-H3122", "method_in_brief": "as §1"}, "[18]": {"system": "NCI-H322M", "method_in_brief": "as §1"}, "[19]": {"system": "NCI-H647", "method_in_brief": "as §1"}, "[20]": {"system": "NCI-H727", "method_in_brief": "as §1"}, "[21]": {"system": "RERF-LC-KJ", "method_in_brief": "as §1"}, "[22]": {"system": "SK-LU-1", "method_in_brief": "as §1"}}}
{"smiles": "O=c1cc(N2CCOCC2)oc2c(-c3cccc4c3sc3ccccc34)cccc12", "note": "+ CS(=O)(=O)N1CCN(Cc2cc3nc(-c4cccc5[nH]ncc45)nc(N4CCOCC4)c3s2)CC1 [Pictilisib] (partner 1 µM)", "values": [{"measurement": "relative viability", "setting": "[1]; first compound 0.01 µM", "value": 0.698}, {"measurement": "relative viability", "setting": "[1]; first compound 0.03162 µM", "value": 0.67}, {"measurement": "relative viability", "setting": "[1]; first compound 0.1 µM", "value": 0.692}, {"measurement": "relative viability", "setting": "[1]; first compound 0.3162 µM", "value": 0.705}, {"measurement": "relative viability", "setting": "[1]; first compound 1 µM", "value": 0.661}, {"measurement": "relative viability", "setting": "[2]; first compound 0.01 µM", "value": 0.593}, {"measurement": "relative viability", "setting": "[2]; first compound 0.03162 µM", "value": 0.579}, {"measurement": "relative viability", "setting": "[2]; first compound 0.1 µM", "value": 0.593}, {"measurement": "relative viability", "setting": "[2]; first compound 0.3162 µM", "value": 0.655}, {"measurement": "relative viability", "setting": "[2]; first compound 1 µM", "value": 0.535}, {"measurement": "relative viability", "setting": "[3]; first compound 0.01 µM", "value": 0.368}, {"measurement": "relative viability", "setting": "[3]; first compound 0.1 µM", "value": 0.485}, {"measurement": "relative viability", "setting": "[3]; first compound 0.3162 µM", "value": 0.551}, {"measurement": "relative viability", "setting": "[3]; first compound 1 µM", "value": 0.326}, {"measurement": "relative viability", "setting": "[4]; first compound 0.01 µM", "value": 1.04}, {"measurement": "relative viability", "setting": "[4]; first compound 0.03162 µM", "value": 0.809}, {"measurement": "relative viability", "setting": "[4]; first compound 0.1 µM", "value": 1.05}, {"measurement": "relative viability", "setting": "[4]; first compound 0.3162 µM", "value": 1.01}, {"measurement": "relative viability", "setting": "[4]; first compound 1 µM", "value": 0.997}, {"measurement": "relative viability", "setting": "[5]; first compound 0.01 µM", "value": 0.64}, {"measurement": "relative viability", "setting": "[5]; first compound 0.03162 µM", "value": 0.664}, {"measurement": "relative viability", "setting": "[5]; first compound 0.1 µM", "value": 0.649}, {"measurement": "relative viability", "setting": "[5]; first compound 0.3162 µM", "value": 0.627}, {"measurement": "relative viability", "setting": "[5]; first compound 1 µM", "value": 0.577}, {"measurement": "relative viability", "setting": "[6]; first compound 0.01 µM", "value": 0.177}, {"measurement": "relative viability", "setting": "[6]; first compound 0.03162 µM", "value": 0.271}, {"measurement": "relative viability", "setting": "[6]; first compound 0.3162 µM", "value": 0.233}, {"measurement": "relative viability", "setting": "[6]; first compound 1 µM", "value": 0.145}, {"measurement": "relative viability", "setting": "[7]; first compound 0.01 µM", "value": 0.877}, {"measurement": "relative viability", "setting": "[7]; first compound 0.03162 µM", "value": 0.815}, {"measurement": "relative viability", "setting": "[7]; first compound 0.1 µM", "value": 0.881}, {"measurement": "relative viability", "setting": "[7]; first compound 0.3162 µM", "value": 0.754}, {"measurement": "relative viability", "setting": "[7]; first compound 1 µM", "value": 0.843}, {"measurement": "relative viability", "setting": "[8]; first compound 0.01 µM", "value": 0.587}, {"measurement": "relative viability", "setting": "[8]; first compound 0.03162 µM", "value": 0.653}, {"measurement": "relative viability", "setting": "[8]; first compound 0.1 µM", "value": 0.484}, {"measurement": "relative viability", "setting": "[8]; first compound 0.3162 µM", "value": 0.623}, {"measurement": "relative viability", "setting": "[8]; first compound 1 µM", "value": 0.627}, {"measurement": "relative viability", "setting": "[9]; first compound 0.01 µM", "value": 0.455}, {"measurement": "relative viability", "setting": "[9]; first compound 0.03162 µM", "value": 0.456}, {"measurement": "relative viability", "setting": "[9]; first compound 0.1 µM", "value": 0.542}, {"measurement": "relative viability", "setting": "[9]; first compound 0.3162 µM", "value": 0.478}, {"measurement": "relative viability", "setting": "[9]; first compound 1 µM", "value": 0.412}, {"measurement": "relative viability", "setting": "[10]; first compound 0.03162 µM", "value": 0.549}, {"measurement": "relative viability", "setting": "[10]; first compound 0.1 µM", "value": 0.56}, {"measurement": "relative viability", "setting": "[10]; first compound 0.3162 µM", "value": 0.504}, {"measurement": "relative viability", "setting": "[10]; first compound 1 µM", "value": 0.514}, {"measurement": "relative viability", "setting": "[11]; first compound 0.01 µM", "value": 0.286}, {"measurement": "relative viability", "setting": "[11]; first compound 0.03162 µM", "value": 0.264}, {"measurement": "relative viability", "setting": "[11]; first compound 0.1 µM", "value": 0.244}, {"measurement": "relative viability", "setting": "[11]; first compound 0.3162 µM", "value": 0.274}, {"measurement": "relative viability", "setting": "[11]; first compound 1 µM", "value": 0.252}, {"measurement": "relative viability", "setting": "[12]; first compound 0.01 µM", "value": 0.289}, {"measurement": "relative viability", "setting": "[12]; first compound 0.03162 µM", "value": 0.348}, {"measurement": "relative viability", "setting": "[12]; first compound 0.1 µM", "value": 0.336}, {"measurement": "relative viability", "setting": "[12]; first compound 0.3162 µM", "value": 0.335}, {"measurement": "relative viability", "setting": "[12]; first compound 1 µM", "value": 0.35}, {"measurement": "relative viability", "setting": "[13]; first compound 0.01 µM", "value": 0.349}, {"measurement": "relative viability", "setting": "[13]; first compound 0.03162 µM", "value": 0.336}, {"measurement": "relative viability", "setting": "[13]; first compound 0.1 µM", "value": 0.349}, {"measurement": "relative viability", "setting": "[13]; first compound 0.3162 µM", "value": 0.348}, {"measurement": "relative viability", "setting": "[13]; first compound 1 µM", "value": 0.35}, {"measurement": "relative viability", "setting": "[14]; first compound 0.01 µM", "value": 0.745}, {"measurement": "relative viability", "setting": "[14]; first compound 0.03162 µM", "value": 0.861}, {"measurement": "relative viability", "setting": "[14]; first compound 0.1 µM", "value": 0.851}, {"measurement": "relative viability", "setting": "[14]; first compound 0.3162 µM", "value": 0.783}, {"measurement": "relative viability", "setting": "[14]; first compound 1 µM", "value": 1}, {"measurement": "relative viability", "setting": "[15]; first compound 0.03162 µM", "value": 0.351}, {"measurement": "relative viability", "setting": "[15]; first compound 0.1 µM", "value": 0.668}, {"measurement": "relative viability", "setting": "[15]; first compound 0.3162 µM", "value": 0.39}, {"measurement": "relative viability", "setting": "[15]; first compound 1 µM", "value": 0.512}, {"measurement": "relative viability", "setting": "[16]; first compound 0.01 µM", "value": 0.397}, {"measurement": "relative viability", "setting": "[16]; first compound 0.03162 µM", "value": 0.513}, {"measurement": "relative viability", "setting": "[16]; first compound 0.1 µM", "value": 0.443}, {"measurement": "relative viability", "setting": "[16]; first compound 0.3162 µM", "value": 0.533}, {"measurement": "relative viability", "setting": "[16]; first compound 1 µM", "value": 0.443}, {"measurement": "relative viability", "setting": "[17]; first compound 0.01 µM", "value": 0.623}, {"measurement": "relative viability", "setting": "[17]; first compound 0.03162 µM", "value": 0.553}, {"measurement": "relative viability", "setting": "[17]; first compound 0.1 µM", "value": 0.651}, {"measurement": "relative viability", "setting": "[17]; first compound 0.3162 µM", "value": 0.552}, {"measurement": "relative viability", "setting": "[17]; first compound 1 µM", "value": 0.57}, {"measurement": "relative viability", "setting": "[18]; first compound 0.01 µM", "value": 0.578}, {"measurement": "relative viability", "setting": "[18]; first compound 0.03162 µM", "value": 0.525}, {"measurement": "relative viability", "setting": "[18]; first compound 0.3162 µM", "value": 0.471}, {"measurement": "relative viability", "setting": "[18]; first compound 1 µM", "value": 0.507}, {"measurement": "relative viability", "setting": "[19]; first compound 0.01 µM", "value": 0.437}, {"measurement": "relative viability", "setting": "[19]; first compound 0.3162 µM", "value": 0.578}, {"measurement": "relative viability", "setting": "[19]; first compound 1 µM", "value": 0.439}, {"measurement": "relative viability", "setting": "[20]; first compound 0.01 µM", "value": 0.587}, {"measurement": "relative viability", "setting": "[20]; first compound 0.03162 µM", "value": 0.355}, {"measurement": "relative viability", "setting": "[20]; first compound 0.1 µM", "value": 0.467}, {"measurement": "relative viability", "setting": "[20]; first compound 0.3162 µM", "value": 0.39}, {"measurement": "relative viability", "setting": "[20]; first compound 1 µM", "value": 0.266}, {"measurement": "relative viability", "setting": "[21]; first compound 0.01 µM", "value": 0.509}, {"measurement": "relative viability", "setting": "[21]; first compound 0.03162 µM", "value": 0.507}, {"measurement": "relative viability", "setting": "[21]; first compound 0.1 µM", "value": 0.595}, {"measurement": "relative viability", "setting": "[21]; first compound 0.3162 µM", "value": 0.664}, {"measurement": "relative viability", "setting": "[21]; first compound 1 µM", "value": 0.514}, {"measurement": "relative viability", "setting": "[22]; first compound 0.01 µM", "value": 0.609}, {"measurement": "relative viability", "setting": "[22]; first compound 0.03162 µM", "value": 0.604}, {"measurement": "relative viability", "setting": "[22]; first compound 0.1 µM", "value": 0.527}, {"measurement": "relative viability", "setting": "[22]; first compound 0.3162 µM", "value": 0.481}, {"measurement": "relative viability", "setting": "[22]; first compound 1 µM", "value": 0.587}]}
